Source: ChEMBL document CHEMBL5385903, “The activity and mechanism of vidofludimus as a potent enzyme inhibitor against NDM-1-positive E. coli” (Eur J Med Chem, 2023)
Values after ≈ are worked out from the molar mass of the structure shown. Active and inactive are the calls of the source. The rule behind the calls is not given here.

Key:
[1] = molecular target: Metallo-beta-lactamase type 2 (Bacteria, UniProt C7C422); experiment: Inhibition of Metallo-beta-lactamase NDM-1 (unknown origin) using nitrocefin as substrate incubated for 5 to 10 mins by spectramax reader analysis
[2] = system: Escherichia coli; experiment: Antibacterial activity in NDM-1 producing Escherichia coli infected in BALB/c mouse assessed as reduction of bacterial burden in small intestine at 10 mg/kg,SC administration measured after 96 hrs of post-infection; format: functional, organism-based
[3] = system: Escherichia coli; experiment: Antibacterial activity against NDM-1 producing Escherichia coli assessed as inhibition of bacterial growth at 4 ug/ml incubated for 5 hrs by time-kill assay; format: functional, organism-based; settings: dose 4.0 µg/ml
[4] = system: Escherichia coli; experiment: Antibacterial activity in NDM-1 producing Escherichia coli infected in BALB/c mouse assessed as increase in animal survival rate at 10 mg/kg,SC administrated upto 120 hrs for every 12 hrs interval; format: functional
[5] = system: Escherichia coli; experiment: Antibacterial activity in NDM-1 producing Escherichia coli infected in BALB/c mouse assessed as reduction of bacterial burden in spleen at 10 mg/kg,SC administration measured after 96 hrs of post-infection; format: functional, organism-based
[6] = system: Escherichia coli; experiment: Antibacterial activity in NDM-1 producing Escherichia coli infected in BALB/c mouse assessed as decrease in pathological damage in small intestine at 10 mg/kg,SC administration measured after 96 hrs of post-infection by hematoxylin and eosin staining based assay; format: functional, organism-based
[7] = system: Escherichia coli; experiment: Antibacterial activity in NDM-1 producing Escherichia coli infected in BALB/c mouse assessed as decrease in pathological damage in spleen at 10 mg/kg,SC administration measured after 96 hrs of post-infection by hematoxylin and eosin staining based assay; format: functional, organism-based
[8] = system: Escherichia coli; experiment: Antibacterial activity in NDM-1 producing Escherichia coli infected in BALB/c mouse assessed as reduction of bacterial burden in liver at 10 mg/kg,SC administration measured after 96 hrs of post-infection; format: functional, organism-based
[9] = system: Escherichia coli; experiment: Antibacterial activity in NDM-1 producing Escherichia coli infected in BALB/c mouse assessed as decrease in pathological damage in liver at 10 mg/kg,SC administration measured after 96 hrs of post-infection by hematoxylin and eosin staining based assay; format: functional, organism-based
[10] = system: Escherichia coli; experiment: Antibacterial activity against NDM-1 producing Escherichia coli assessed as inhibition of bacterial growth incubated overnight by broth microdilution assay; format: functional
[11] = system: Escherichia coli; experiment: Antibacterial activity in NDM-1 producing Escherichia coli infected in BALB/c mouse assessed as decrease in pathological damage in small intestine at 10 mg/kg,IG administration measured after 96 hrs of post-infection by hematoxylin and eosin staining based assay; format: functional, organism-based
[12] = molecular target: Beta-lactamase NDM-1 (Escherichia coli) (UniProt E5KIY2); experiment: Inhibition of Escherichia coli recombinant wild type NDM-1 expressed in Escherichia coli BL21 (DE3) incubated for 10 mins
[13] = molecular target: Beta-lactamase NDM-1 (Escherichia coli) (UniProt E5KIY2); experiment: Inhibition of Escherichia coli NDM-1 assessed as effect on NDM-1 protein expression at 64 ug/ml incubated for 12 hrs by Western blotting analysis; settings: dose 64.0 µg/ml
[14] = system: Escherichia coli; experiment: Antibacterial activity against NDM-1 producing Escherichia coli assessed as inhibition of bacterial growth at 2 to 512 ug/ml incubated overnight by broth microdilution assay; format: functional, organism-based; settings: dose 2-512 µg/ml
[15] = system: Escherichia coli; experiment: Synergistic antibacterial activity against NDM-1 producing Escherichia coli assessed as fractional inhibitory concentration index in presence of meropenem by checkerboard broth microdilution assay; format: functional
[16] = system: Escherichia coli; experiment: Antibacterial activity in NDM-1 producing Escherichia coli infected in BALB/c mouse assessed as decrease in pathological damage in spleen at 10 mg/kg,IG administration measured after 96 hrs of post-infection by hematoxylin and eosin staining based assay; format: functional, organism-based
[17] = system: Escherichia coli; experiment: Antibacterial activity in NDM-1 producing Escherichia coli infected in BALB/c mouse assessed as decrease in TNF-alpha level at 10 mg/kg,IG administration measured after 96 hrs of post-infection by ELISA; format: functional, organism-based
[18] = system: Escherichia coli; experiment: Synergistic antibacterial activity against NDM-1 producing Escherichia coli assessed as inhibition of bacterial growth by measuring meropenem MIC incubated overnight in presence of meropenem by broth microdilution assay; format: functional
[19] = molecular target: Beta-lactamase NDM-1 (Escherichia coli) (UniProt E5KIY2); experiment: Binding affinity to Escherichia coli NDM-1 assessed as melting temperature at 64 ug/ml incubated for 18 hrs by CD spectroscopy; settings: dose 64.0 µg/ml
[20] = system: Escherichia coli; experiment: Antibacterial activity in NDM-1 producing Escherichia coli infected in BALB/c mouse assessed as effect on white blood cell count at 10 mg/kg,IG administration measured after 96 hrs of post-infection; format: functional, organism-based
[21] = system: Beta-lactamase NDM-1 (Escherichia coli), E5KIY2 [UNDEFINED MUTATION]; experiment: Inhibition of Escherichia coli recombinant NDM-1 mutant expressed in Escherichia coli BL21 (DE3) at 4 to 128 ug/ml incubated for 10 mins; settings: dose 4-128 µg/ml
[22] = molecular target: T1, Beta-lactamase NDM-1 (Escherichia coli, UniProt E5KIY2); experiment: Binding affinity to Escherichia coli NDM-1 assessed as equilibrium dissociation constant measured for 60 sec by bio-layer interferometry analysis
[23] = molecular target: Beta-lactamase NDM-1 (Escherichia coli) (UniProt E5KIY2); experiment: Inhibition of Escherichia coli NDM-1 expressed in Escherichia coli BL21 (DE3) using nitrocefin as substrate at 10 ug/ml by microplate reader analysis relative to control; settings: dose 10.0 µg/ml
[24] = molecular target: Beta-lactamase NDM-1 (Escherichia coli) (UniProt E5KIY2); experiment: Binding affinity to Escherichia coli NDM-1 by bio-layer interferometry analysis
[25] = system: Escherichia coli; experiment: Synergistic antibacterial activity against NDM-1 producing Escherichia coli assessed as inhibition of bacterial growth incubated overnight in presence of meropenem by broth microdilution assay; format: functional
[26] = system: Escherichia coli; experiment: Antibacterial activity against NDM-1 producing Escherichia coli assessed as inhibition of bacterial growth at 64 ug/ml incubated for 5 hrs by time-kill assay; format: functional, organism-based; settings: dose 64.0 µg/ml
[27] = system: Escherichia coli; experiment: Antibacterial activity in NDM-1 producing Escherichia coli infected in BALB/c mouse assessed as decrease in IFN-gamma level at 10 mg/kg,IG administration measured after 96 hrs of post-infection by ELISA; format: functional, organism-based
[28] = system: Escherichia coli; experiment: Antibacterial activity in NDM-1 producing Escherichia coli infected in BALB/c mouse assessed as decrease in pathological damage in liver at 10 mg/kg,IG administration measured after 96 hrs of post-infection by hematoxylin and eosin staining based assay; format: functional, organism-based
[29] = system: Escherichia coli; experiment: Antibacterial activity in NDM-1 producing Escherichia coli infected in BALB/c mouse assessed as increase in animal survival rate at 10 mg/kg,IG administrated upto 120 hrs for every 12 hrs interval; format: functional; settings: po
[30] = molecular target: Beta-lactamase NDM-1 (Escherichia coli) (UniProt E5KIY2); experiment: Inhibition of Escherichia coli recombinant wild type NDM-1 expressed in Escherichia coli BL21 (DE3) at 4 to 128 ug/ml incubated for 10 mins relative to control; settings: dose 4-128 µg/ml
[31] = molecular target: T1, Beta-lactamase NDM-1; experiment: Inhibition of Escherichia coli NDM-1 expressed in Escherichia coli BL21 (DE3) using nitrocefin as substrate by microplate reader analysis
[32] = system: Escherichia coli; experiment: Antibacterial activity in NDM-1 producing Escherichia coli infected in BALB/c mouse assessed as decrease in IL-1beta level at 10 mg/kg,IG administration measured after 96 hrs of post-infection by ELISA; format: functional, organism-based
[33] = system: Escherichia coli; experiment: Synergistic antibacterial activity in NDM-1 producing Escherichia coli infected in BALB/c mouse assessed as increase in animal survival rate at 10 mg/kg,IG administrated with meropenem by subcutaneous injection upto 120 hrs for every 12 hrs interval; format: functional

N[C@@H](CN[C@@H](CN[C@@H](CC(=O)O)C(=O)O)C(=O)O)C(=O)O
IC50 [1]: 4.1 µM

C[C@@H](O)[C@H]1C(=O)N2C(C(=O)O)=C(S[C@@H]3CN[C@H](C(=O)N(C)C)C3)[C@H](C)[C@H]12 [MEROPENEM]
Activity [2]: Active | Activity [3]: inactive | survival at 10 mg/kg [4]: 40% | Activity [5]: Active | Activity [6]: Active | Activity [7]: Active | Activity [8]: Active | Activity [9]: Active | MIC [10]: 64 µg/mL (≈ 167 µM)

COc1cccc(-c2ccc(NC(=O)C3=C(C(=O)O)CCC3)c(F)c2)c1 [VIDOFLUDIMUS]
Activity [11]: inactive | inhibition [12]: Dose-Dependent Effect | inhibition [13]: inactive | Activity [14]: inactive | fractional inhibitory concentration index (FICI) [15]: 0.125 | Activity [16]: inactive | Activity [17]: inactive | MIC [18]: 4 µg/mL | Tm [19]: 58 °C | Activity [20]: inactive | inhibition [21]: inactive | Kd [22]: 0.337 µM | inhibition [23]: 93.3% | Activity [24]: Dose-Dependent Effect | MIC [25]: 64 µg/mL | Activity [26]: inactive | Activity [27]: inactive | Activity [28]: inactive | survival at 10 mg/kg [29]: 10% | MIC [10]: 1020 µg/mL (≈ 2880 µM) | inhibition [30]: 14.9% | IC50 [31]: 13.8 µM | Activity [32]: inactive | survival at 10 mg/kg [33]: 90%
